Biological target: T1, Rif16 (Amycolatopsis mediterranei, UniProt A0A0H3CVZ6)
T1 construct: gene AMED_0653; N-terminally His6-tagged Rif16 (rif16 from A. mediterranei S699)
Assay: Type I spectral substrate binding titration; co-crystal structure at […] Å

T1 sequence (A0A0H3CVZ6 entry or part of it): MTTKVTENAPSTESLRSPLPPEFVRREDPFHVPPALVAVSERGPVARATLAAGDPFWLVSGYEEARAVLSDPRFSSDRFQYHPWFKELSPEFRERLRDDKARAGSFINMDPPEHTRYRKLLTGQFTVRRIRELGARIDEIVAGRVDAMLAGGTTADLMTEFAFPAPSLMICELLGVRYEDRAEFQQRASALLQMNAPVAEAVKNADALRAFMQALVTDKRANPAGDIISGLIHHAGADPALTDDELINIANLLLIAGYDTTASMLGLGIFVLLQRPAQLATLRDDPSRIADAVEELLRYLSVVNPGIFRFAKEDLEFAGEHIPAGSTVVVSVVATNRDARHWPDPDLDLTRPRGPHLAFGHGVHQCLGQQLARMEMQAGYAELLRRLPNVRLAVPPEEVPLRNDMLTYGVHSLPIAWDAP

Molecule `CO[C@H]1/C=C/O[C@@]2(C)Oc3c(C)c(O)c4c(O)c(cc(OC(=O)CO)c4c3C2=O)NC(=O)/C(C)=C/C=C/[C@H](C)[C@H](O)[C@@H](C)[C@@H](O)[C@@H](C)[C@H](OC(C)=O)[C@@H]1C` [R-L, rifamycin L] has a Kd of 1.3 ± 0.1 µM.

— paper PMC6002545, “Deciphering the late steps of rifamycin biosynthesis” (Nature Communications, 2018)
